Data taken from PubChem BioAssay (NCI).
Where “and” joins values, the source holds several entries; their conditions need not be identical. Equal values may be shown once.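 48-hour exposure; five concentrations; linearly interpolated endpoints. GI50 = concentration required for 50% inhibition of growth. The concentration for full growth arrest is given as TGI.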

Columns and labels:
Assay in all cases: inhibition of tumour cell growth, NCI panel, 48 h
[1] = tested on: A549 NSCLC
[2] = tested on: HL-60(TB) leukemia
[3] = tested on: HS 578T breast
[4] = tested on: 786-0 renal
[5] = tested on: TK-10 renal
[6] = tested on: SK-OV-3 ovarian
[7] = tested on: ACHN renal
[8] = tested on: OVCAR-5 ovarian

Compound | GI50 [1] | TGI [1] | GI50 [2] | TGI [2] | GI50 [3] | TGI [3] | GI50 [4] | TGI [4] | GI50 [5] | TGI [5] | GI50 [6] | TGI [6] | GI50 [7] | TGI [7] | GI50 [8] | TGI [8]
Cc1cc(OCc2nn(CN3CCN(C)CC3)c(=S)n2/N=C/c2ccc(F)cc2)ccc1Cl | 16.9 µM | 31.3 µM | 17.4 µM | 40 µM | 33.1 µM | 88.7 µM | 18.7 µM | 34.1 µM | 14.6 µM | 33.7 µM | 19.7 µM | 44.4 µM | 20.1 µM | 34.3 µM | 25 µM | 49.5 µM
COc1ccc(NC(=O)c2cccc(C3CCc4c(cc(OC)c(OC)c4OC)O3)c2)cc1 (stereo unspecified) | 3.57 µM | > 100 µM | 1.25 µM | > 100 µM | 2.69 µM | > 100 µM | 4.18 µM | > 100 µM | 3.75 µM | > 100 µM | 3.54 µM | > 100 µM | 4.28 µM | > 100 µM | 6.46 µM | > 100 µM
Cn1cc(-c2nc(-c3cn(C)c4ncccc34)cs2)c2ccccc21 | 1.43 µM | > 100 µM | 1.92 µM | > 100 µM | 4.14 µM | > 100 µM | 2.68 µM | 13.7 µM | 2.4 µM | 11.6 µM | 1.98 µM | 5.31 µM | 3.67 µM | 79.4 µM | 4.92 µM | 45.1 µM
COc1ccc2c(c1)C(=O)c1c-2n(CCCCl)c(=O)c2cc(N)ccc12 | > 100 µM | > 100 µM | > 41.3 µM | > 59.1 µM | > 96.3 µM | > 100 µM | > 63.7 µM | > 100 µM | > 82.5 µM | > 100 µM | > 100 µM | > 100 µM | 98.4 µM | > 100 µM | > 61.7 µM | > 100 µM
CCN(CC)CCCNc1cc(OC)c(OC)c2cccnc12 | 10.5 µM | 38.1 µM | 3.47 µM | 6.55 µM | 7.3 µM | 42.8 µM | 12 µM | 31.3 µM | 23 µM | 50.1 µM | 9.37 µM | 44.9 µM | 2.61 µM | 46.3 µM | 20.6 µM | 51.1 µM
O=C(COc1cccc(/C=C2\Oc3ccc4ccccc4c3C2=O)c1)c1ccc([N+](=O)[O-])cc1 | > 100 µM | > 100 µM | 62.7 µM | > 100 µM | 18.2 µM | 56.1 µM | 23.6 µM | 62.3 µM | 37.3 µM | > 100 µM | 64.2 µM | > 100 µM | 60.2 µM | > 100 µM | 27.3 µM | > 100 µM
CC1(C)CC[C@]2(CO)CC[C@]3(C)C(=CC[C@@H]4[C@@]5(C)CCNCC(C)(C)[C@@H]5CC[C@]43C)[C@@H]2C1 | 8.23 µM | 22.7 µM | 2.45 µM | 7.34 µM | 4.88 µM | 22.1 µM | 3.8 µM | 15 µM | 10.3 µM | 22.6 µM | 13.5 µM | 26.8 µM | 4.91 µM | 16.6 µM | 4.94 µM | 17.6 µM
OCC1OC(n2cnc3c(NCc4ccco4)ncnc32)C(O)C1O (stereo unspecified) | 2.6 µM | 36.9 µM | 0.724 µM | 3.48 µM | 3.38 µM | > 100 µM | 2.16 µM | 10.3 µM | 3.18 µM | > 63.7 µM | 1.6 µM | 14.2 µM | 0.542 µM | > 100 µM | 4.76 µM | > 100 µM
COc1cc(/C=C/c2ccnc3ccccc23)cc(OC)c1OC | 3.39 µM | 31.1 µM and > 100 µM | 2.56 µM | 1.58 µM and 7.97 µM | 1.74 µM | 20.9 µM and 7.18 µM | 4.42 µM | 28.2 µM and 61.6 µM | – | 30.6 µM and > 100 µM | 5.68 µM | 46.4 µM and 40.3 µM | 4.89 µM | 92 µM and > 100 µM | – | 95 µM and > 100 µM
CC(=N\O)/C(C)=N/O.CC(=N\O)/C(C)=N/O.[Fe].[NH2-].c1c[nH]cn1 | > 100 µM | > 100 µM | > 100 µM | > 100 µM | > 100 µM | > 100 µM | > 100 µM | > 100 µM | > 100 µM | > 100 µM | > 100 µM | > 100 µM | > 100 µM | > 100 µM | > 100 µM | > 100 µM
CCC(C)C(=O)OC1CCC=C2C=CC(C)C(CCC3CC(O)CC(=O)O3)C21 (stereo unspecified) | – | > 100 µM | – | > 100 µM | – | 17.4 µM | – | > 65.9 µM | – | 98.8 µM | – | > 100 µM | – | > 88 µM | – | > 100 µM
NC(Cc1c[nH]c2cccc(F)c12)C(=O)O (stereo unspecified) | 98.7 µM and 679 µM | > 4500 µM | – | > 4500 µM | 62.9 µM and 501 µM | > 4500 µM | 124 µM | 894 µM | 1220 µM | > 4500 µM | 518 µM | > 4500 µM | 679 µM | > 4500 µM | 1280 µM | > 4500 µM
CC[Si](CC)(CC)OC1[C@@H](O[Si](CC)(CC)CC)[C@@H](CNC(=O)NC)O[C@H]1n1cnc2c(NC(=O)Nc3ccccc3)ncnc21 (stereo partly specified) | 3.14 µM | > 100 µM | 2.49 µM | 6.32 µM | 2.66 µM | 39.5 µM | 2.96 µM | 10.7 µM | 2.65 µM | 9.88 µM | 14.7 µM | > 100 µM | 3.44 µM | > 100 µM | 4.06 µM | 62.1 µM
C/C(=N\NC(=S)N1CCN(c2ccccn2)CC1)c1cccc2cccnc12 | – | > 100 µM | – | 12.3 µM | – | > 100 µM | – | > 100 µM | – | > 100 µM | – | 43.5 µM | – | > 100 µM | – | > 60.1 µM
C/C=C(\C)C(=O)O[C@@H]1C=CC(=O)O[C@H]1CNC(=O)[C@H](C)O | 30.5 µM | > 88.4 µM | 8.67 µM | 32.3 µM | 16.7 µM | 53.8 µM | 23.6 µM | 73.5 µM | 18.9 µM | 43.2 µM | 39.4 µM | 98.9 µM | 15.9 µM | 31.2 µM | 32 µM | > 73.2 µM
